Data on 1 molecule can be found in patent publication US3937838A, “Orally active bronchospasmolytic compounds and their preparation” (priority 1966, dated 1976).

Data set [1] in a line: Toxicity study in mice (Example 18). The data set is classed as in vivo. To be noted: mouse, in vivo, mice (NMRI, male), 24 hours, read-out: LD 50 + Standard error. On the procedure: The toxicity was studied in mice (NMRI, male, 18-28 g) 24 hours after i.v. and oral administration. The animals were observed during five days. No further deaths occurred.
The test system of data set [2] is spirally cut trachea from the guinea pig. As to the kind of experiment: Dual preparation test in vitro, effect on trachea (Example 5c). Conditions: slow infusion; 0.375 μg/min where stated; FIGS. 2-4. The source says:
[This procedure is more fully described below in Example 5 (b)].
FIG. 2 illustrates the effect of epinephrine (EPE) and terbutaline on spirally cut trachea and right auricle from the guinea pig. Both preparations are dissected out from the same animal and run under identical experimental conditions;
Both preparations are dissected out from the same animal, and run under identical experimental conditions;
Both preparations are dissected out from the same animal and run under identical experimental conditions;
The relation between the heart stimulatory effect and bronchodilator effect was studied in vitro on auricle-trachea-preparation from the guinea pig in order to compare the effect on the heart and the effect on the bronchial muscle under identical experimental conditions. Both spontaneously bearing auricle and spirally-cut trachea were placed in the same bath in Krebs solution. Both preparations were taken from the same animal.
The compound to be tested was slowly infused into the bathing solution and the tension was measured for each of the auricle and trachael preparations.
In carrying out this dual preparation test, epinephrine was used as a reference. […] Infusion of epinephrine was made over a period of ten minutes. After washing and recovery, the test solution was infused in the same manner and the effect of the test compound was compared with the effect of epinephrine.

A short description of data set [3]: Acute toxicity in mice (Example 9). To be noted: mouse, in vivo, mice (base).
A further data set has as its system bronchial asthma. As to the kind of experiment: Clinical study in asthmatic patients (Example 6). The data set is classed as in vivo, human. Here is the method:
All the patients were hospitalized for severe bronchial asthma. Before the patients were selected for the trial, spirometry was performed before and after isoprenaline inhalations to make sure that their obstruction was at least partly reversible by bronchodilating drugs. The tests were performed when the patients were in a relatively steady state of moderate asthmatic discomfort. Every morning during the trial control measurements of forced expiratory volume in one second (FEV1.0) were made. These values had to be less than 70% of the predicted normal value taking in consideration sex, age and heights. All the patients were under treatment of different drugs for their asthma. Other bronchodilating drugs were withdrawn at least 6 hours before the start of the measurements. Most of the patients were treated with steroids, antibiotics and expectorants before the start of the trial. This regimen was continued unchanged during the trial period.
Twenty-four took part in the study, 10 male and 14 female. Average age was 51 years (range 15-71 years), mean body weight 64 kg (range 44-88 kg.) and height 166 cm (range 150-187 cm).
The trial was performed as a double blind study during three consecutive days with the patients serving as their own control. […] The order of treatment was randomized according to the principle of Latin squares.
Lung function tests were made immediately before the administration of the tablets and after 1, 2, 3, 5 and 7 hours. FEV1.0 was measured using a Vitalograph spirometer. The highest value of three measurements on each occasion was used in the calculations. All the patients had been trained to perform the tests the day before the start of the trial. After 3 and 7 hours, the patients were questioned for side effects. The same, specially trained, nurse assisted throughout the whole investigation.
The "Student's" t-test was used for statistical evaluation of the results. The degree of significance for the differences is given as almost significant (p<0.05^x) significant (p<0.01^xx) and highly significant (p<0.001^xxx).

“Also recorded” adds a separate entry of the source. Where two headings read alike, the source gives them in different places.

As for `CC(C)(C)NCC(O)c1cc(O)cc(O)c1` (racemic) [terbutaline, 1-(3',5'-dihydroxyphenyl)-2-(t-butylamino)-ethanol], the LD50 at 24 h in data set [1] (iv) was 52 ± 3 mg/kg; in data set [1] (po), 3200 mg/kg. For the same molecule, in data set [2], the “effect on trachea (relaxation)” value is recorded as “nearly comparable to that of epinephrine infused at the same rate”. For the same molecule, the LD50 in data set [3] (iv) is 47 mg/kg; in data set [3] (sc), 240 mg/kg; in data set [3] (oral) it was 3200 mg/kg. In the data set on bronchial asthma (5 mg terbutaline versus 20 mg orciprenaline, oral), the “maximum effect and duration of effect versus orciprenaline” value was “superior to 20 mg of orciprenaline”. Besides, the circulatory effects result in the data set on bronchial asthma (oral) is given as “negligible circulatory effects”. Also, the “time of maximal response (FEV1.0)” value in the data set on bronchial asthma (oral single dose) is 3 h. The duration of action in the data set on bronchial asthma (oral, presumably) was > 5 h. Moreover, the “increase of FEV1.0” value with bronchial asthma (oral, terbutaline 5.0 mg, orciprenaline 20 mg, FIG. 9) is “clearcut increase of the spirometric values; also recorded: significantly greater than that of orciprenaline; also recorded: effective in relaxing bronchial obstruction in asthmatic patients”.
